From ChEMBL document CHEMBL4396866, “Discovery and Structure-Based Optimization of Next-Generation Reversible Methionine Aminopeptidase-2 (MetAP-2) Inhibitors” (J Med Chem, 2019)
≈ marks a conversion by molar mass, not a printed value.

Key:
[1] = Drug metabolism in DMSO assessed as oxidation by measuring rac-3-Hydroxy-2-oxo-1-phenylpyrrolidine-3-carboxylic Acid (2-Thiophen-2-ylethyl)amide formation incubated at high temperature under stirring condition for 2 days
[2] = Drug metabolism in DMSO assessed as oxidation by measuring rac-3-Hydroxy-2-oxo-1-phenylpyrrolidine-3-carboxylic Acid (2-Thiophen-2-ylethyl)amide formation measured after 2 years
[3] = Oral bioavailability in mouse at 0.5 mg/kg; assay type: ADME, organism-based; settings: in vivo
[4] = Toxicity in CD-1 nude mouse xenografted with human U87MG cells assessed as body weight loss at 5 to 20 mg/kg, po administered once daily for 12 days measured during compound dosing; assay type: organism-based; settings: in vivo, 288 h
[5] = Half life in mouse at 0.2 mg/kg, iv; assay type: ADME, organism-based; settings: in vivo
[6] = Clearance in mouse at 0.2 mg/kg, iv; assay type: ADME, organism-based; settings: in vivo
[7] = Stability in human liver microsomes assessed per mg protein; assay type: ADME, Microsome
[8] = Solubility of the compound in FeSSIF; assay type: physicochemical
[9] = Dissociation constant, pKa of compound; assay type: physicochemical
[10] = Solubility of the compound in FaSSIF; assay type: physicochemical
[11] = Lipophilicity, log D of the compound at pH 7.4; assay type: physicochemical; settings: buffer
[12] = Oral bioavailability in mouse at 50 mg/kg; assay type: ADME, organism-based; settings: in vivo
[13] = Passive permeability across apical to basal side in human Caco2 cells; assay type: ADME, cell-based; settings: Caco-2, read-out: permeability
U-87 MG = test: Antitumor activity against human U87MG cells xenografted in po dosed CD-1 nude mouse assessed as tumor growth inhibition administered once daily for 12 days; assay type: functional, organism-based; settings: U-87MG ATCC
[14] = Toxicity in CD-1 nude mouse xenografted with human U87MG cells at 5 to 20 mg/kg, po administered once daily for 12 days measured during compound dosing; assay type: organism-based; settings: in vivo, 288 h
[15] = Volume of distribution at steady state in mouse at 0.2 mg/kg, iv; assay type: ADME, organism-based; settings: in vivo, read-out: Vdss
[16] = Stability in mouse liver microsomes assessed per mg protein; assay type: ADME, Microsome

Which Drug metabolism [1] does the source give for O=C(NCCc1cccs1)C1CCN(c2ccccc2)C1=O (configuration not stated) here?
Its Drug metabolism is “Metabolite not detected”.

What about the Drug metabolism [2] of the same molecule?
Its Drug metabolism is “Metabolite detected”.

Which results are given for O=C1CCc2cc(N3CC[C@](O)(C(=O)NCc4cc(F)cc(Cl)c4)C3=O)ccc2N1?
bioavailability [3]: 35%; Activity [4]: Non-Toxic; half-life [5]: 3 h; clearance [6]: 3 mL/min/kg; Stability [7]: < 10 µL/min; solubility [8]: 334 µg/mL (≈ 773 µM); pKa [9]: 11; solubility [10]: 158 µg/mL (≈ 366 µM); logD [11]: 2; bioavailability [12]: 100%; Papp A→B [13]: 16 ×10⁻⁶ cm/s; TGI (U-87 MG): Dose-dependent effect; Activity [14]: Non-Toxic; Vd [15]: 0.78 L/kg; Stability [16]: < 10 µL/min
